# Reference: publication PMC12735844, “2-(Trihydroxyphenyl)thienopyrimidinones as Key Scaffolds for Targeting a Novel Allosteric Site of HIV-1 Integrase” (Molecules, 2025)
# Values joined by “and” are separate entries in the source; they are usually repeats but may differ in a detail not shown here. Equal values may be shown once. Read-outs that look alike come from different tables or passages of the source.
# Key:
# [1] = target: T1, HIV-1 IN in the absence of LEDGF/p75 (Human immunodeficiency virus type 1 group M subtype B, UniProt P12497); assay: HTRF HIV-1 IN LEDGF/p75-independent assay; type: biochemical; conditions: mean ± SE, three experiments, read-out: IC50 IN LEDGF/p75-independent integration
# T1 construct: His; made in house; host or cells: Escherichia coli BL21 (DE3)
# Experimental: (§1) The IN LEDGF/p75-dependent and indepentent assay was performed for the evaluation of 3′-processing and strand-transfer IN reactions inhibition in the presence/absence of recombinant LEDGF/p75 protein, as previously described.
# [2] = target: T2, HIV-1 IN (wild-type) in the presence of LEDGF/p75 (Human immunodeficiency virus type 1 group M subtype B, UniProt P12497); assay: HTRF HIV-1 IN LEDGF/p75-dependent assay (3'-processing and strand transfer), wild-type IN, with or without sucrose; type: biochemical; conditions: for IC50: IC50 IN LEDGF/p75-dependent integration
# T2 construct: IN is a 32 kDa multimeric enzyme comprising three domains; His; made in house; host or cells: Escherichia coli BL21 (DE3)
# Experimental: as §1
# (§2) The same assay in the presence of HIV-1 IN wt, K173A and H185A mutant proteins, was used to evaluate the effect of sucrose in the presence of selected compounds.
# [3] = target: T2, HIV-1 IN (wild-type) in the presence of LEDGF/p75; design: method as in PMID 37764476, PMID 23631411; conditions: previously reported dihydroxyphenyl-thienopyrimidinones; read-out: IN LEDGF/p75-dependent IC50; cited from earlier work
# [4] = target: T3, HIV-1 IN-IN subunit exchange (Human immunodeficiency virus type 1 group M subtype B, UniProt P12497); assay: HTRF-based IN-IN subunit exchange assay; type: biochemical; conditions: for IC50: mean ± SE, three experiments
# T3 construct: IN is a 32 kDa multimeric enzyme comprising three domains; made in house; host or cells: Escherichia coli BL21 (DE3)
# Experimental: (§3) HIV-1 His and FLAG-tagged INs were mixed in a mix buffer previously described and compounds added to the mixture and incubated for 2.5 h at room temperature. At the end of the time, a mixture of anti-His6-XL665 and anti-FLAG-EuCryptate antibodies were added to the reaction and, after an incubation time of 3 h, the HTRF signal was recorded as described in the previous paragraph.
# [5] = target: T4, HIV-1 IN/LEDGF/p75 binding (Human immunodeficiency virus type 1 group M subtype B, UniProt P12497); assay: HTRF-based IN-LEDGF/p75 binding assay; conditions: mean ± SE, three experiments
# T4 construct: IN is a 32 kDa multimeric enzyme comprising three domains; made in house; host or cells: Escherichia coli BL21 (DE3)
# Experimental: The IN-LEDGF/p75 binding was evaluated using a FRET method, in which His-IN was pre-incubated with test compounds in a mix buffer previously described, for 30 min at room temperature. After the addition of FLAG-LEDGF/p75 and a mixture of anti-His6-XL665 and anti-FLAG-EuCryptate antibodies, the reaction was read after 4 h at 4 °C, using 314 nm for excitation wavelength and […] and 620 nm for the wavelength of the acceptor and donor emission, respectively, with a Perkin Elmer Victor 3 plate reader (Perkin Elmer, Waltham, MA, USA), and the HTRF signal calculated by the emission ratio 665 nm/620 nm multiplied by 10.000.
# HIV-1 IN multimerization = target: T5, HIV-1 IN multimerization (Human immunodeficiency virus type 1 group M subtype B, UniProt P12497); assay: HTRF-based assay of higher-order, aberrant IN multimerization; type: biochemical; conditions: dash = no induction of higher-order
# T5 construct: IN is a 32 kDa multimeric enzyme comprising three domains; made in house; host or cells: Escherichia coli BL21 (DE3)
# Experimental: as §3
# human T-cell line CEM-SS = assay: Cytotoxicity in the XTT-based cell viability assay; conditions: CEM-SS cells
# Experimental: (§4) Antiviral activity of selected thienopyrimidinones was determined via the 2,3-bis[2-methoxy-4-nitro-5-sulfophenyl]-5-[(phenylamino)-carbonyl]-2H tetrazolium hydroxide (XTT)-based cell viability assay, using the HIV-1RF isolate and human T-cell line CEM-SS.
# [6] = system: HIV-1RF isolate in CEM-SS cells; assay: Antiviral activity, XTT-based cell viability assay
# Experimental: as §4
# HIV-1 IN K173A mutant = target: T6, HIV-1 IN K173A mutant (Human immunodeficiency virus type 1 group M subtype B, UniProt P12497, K1320A); assay: HTRF IN LEDGF/p75-dependent assay on K173A mutant, with or without sucrose; type: biochemical; conditions: for Fold of increase of potency, K173A mutant: with sucrose vs alone
# T6 construct: IN is a 32 kDa multimeric enzyme comprising three domains; His; made in house; host or cells: Escherichia coli BL21 (DE3)
# Experimental: (§5) The commercial QuikChange mutagenesis Kit (Agilent Technologies Inc., Santa Clara, CA, USA) were used to introduce the selected substitutions on HIV-1 IN wt plasmid and the correct presence of alanine in 173 and 185 position were evaluated in the electropherogram provided by Bio-Fab, after the sequencing.
# (§6) HIV-1 IN wt, K173A and H185A mutant proteins were expressed in Escherichia coli strain BL21 (DE3) after transformation with a plasmid containing protein gene. Recombinant proteins were then purified using a Ni-Sepharose column and a heparin column and stored as previously described. LEDGF/p75 with 6-his and FLAG tags were purified with a heparin column and a Superdex 200 GL (Merck Sigma Aldrich, Milan, Italy) column previously described.
# as §1, §2
# HIV-1 IN H185A mutant = target: T7, HIV-1 IN H185A mutant (Human immunodeficiency virus type 1 group M subtype B, UniProt P12497, F1332A); assay: HTRF IN LEDGF/p75-dependent assay on H185A mutant, with or without sucrose; type: biochemical; conditions: for IC50: LEDGF/p75-dependent activity; for Fold of increase of potency, H185A mutant: with sucrose vs alone
# T7 construct: IN is a 32 kDa multimeric enzyme comprising three domains; His; made in house; host or cells: Escherichia coli BL21 (DE3)
# Experimental: as §5, §6, §1, §2
# wt RT RNase H = target: wt RT RNase H; design: method as in PMID 33143469; conditions: previously reported quinazolinone; cited from earlier work
# [7] = in the presence of LEDGF/p75, compound alone, mean ± SE, three experiments
# [8] = LEDGF/p75-dependent, IC50 alone vs with sucrose
# [9] = HIV-1 IN H185A mutant IC50 alone, no sucrose
# [10] = HIV-1 IN H185A mutant IC50 with sucrose, in the presence of sucrose
smiles,measurement,setting,value
"Cc1sc2nc(-c3cc(O)c(O)c(O)c3)[nH]c(=O)c2c1C [Compound 5, 5,6-Dimethyl-2-(3,4,5-trihydroxyphenyl)thieno[2,3-d]pyrimidin-4(3H)-one]",IC50,[1],5.35 ± 0.55 µM
same,IC50,[2]; [7],8 ± 2 µM
"Cc1sc2nc(-c3ccc(O)c(O)c3O)[nH]c(=O)c2c1C [Compound 8, 5,6-Dimethyl-2-(2,3,4-trihydroxyphenyl)thieno[2,3-d]pyrimidin-4(3H)-one]",IC50,[2]; [7],11.8 ± 1.85 µM
O=c1[nH]c(-c2cc(O)cc(O)c2)nc2sc3c(c12)CCCCC3 [Compound 3],IC50,[3],3.37 ± 0.48 µM
"O=c1[nH]c(-c2cc(O)c(O)cc2O)nc2sc3c(c12)CCCCC3 [Compound 9, 2-(2,4,5-Trihydroxyphenyl)-3,5,6,7,8,9-hexahydro-4H-cyclohepta[4,5]thieno[2,3-d]pyrimidin-4-one]",IC50,[4],6.35 ± 1.35 µM
same,IC50,[5],> 100 µM
same,IC50 IN/LEDGF/p75 binding,[5],inactive
same,IC50,[1],0.99 ± 0.09 µM
same,MI50 IN multimerization,HIV-1 IN multimerization,none succeeded in inducing multimerization
same,IC50,[2]; [7],0.965 ± 0.035 µM
"Cc1sc2nc(-c3c(O)cc(O)cc3O)[nH]c(=O)c2c1C [Compound 7, 5,6-Dimethyl-2-(2,4,6-trihydroxyphenyl)thieno[2,3-d]pyrimidin-4(3H)-one]",IC50,[2]; [7],6.1 ± 1.6 µM
"OC[C@H]1O[C@@](CO)(O[C@H]2O[C@H](CO)[C@@H](O)[C@H](O)[C@H]2O)[C@@H](O)[C@@H]1O [sucrose, reference compound]",IC50 IN LEDGF/p75-dependent integration,[2]; [7],inactive
"O=c1[nH]c(-c2cc(O)c(O)c(O)c2)nc2sc3c(c12)CCC3 [Compound 13, 2-(3,4,5-Trihydroxyphenyl)-3,5,6,7-tetrahydro-4H-cyclopenta[4,5]thieno[2,3-d]pyrimidin-4-one]",IC50,[1],1.12 ± 0.22 µM
"Cc1sc2nc(-c3cc(O)c(O)cc3O)[nH]c(=O)c2c1C [Compound 6, 5,6-Dimethyl-2-(2,4,5-trihydroxyphenyl)thieno[2,3-d]pyrimidin-4(3H)-one]",cytotoxicity,human T-cell line CEM-SS,devoid of cytotoxicity
same,effect on viral replication,[6],not able to inhibit viral replication
same,IC50,[4],5.45 ± 0.05 µM
same,IC50,[5],75 ± 12 µM
same,IC50,HIV-1 IN K173A mutant,6.5 ± 1.7 µM
same,"Fold of increase of potency, K173A mutant",HIV-1 IN K173A mutant,32.5
same,IC50,[1],0.76 ± 0.01 µM
same,MI50 IN multimerization,HIV-1 IN multimerization,none succeeded in inducing multimerization
same,reduction in activity by sucrose (times),[2]; [8],approximately 10
same,IC50,HIV-1 IN H185A mutant; [9],4.64 ± 0.7 µM
same,IC50,HIV-1 IN H185A mutant; [10],0.48 ± 0.08 µM
same,"Fold of increase of potency, H185A mutant",HIV-1 IN H185A mutant,9.7
O=c1[nH]c(-c2cc(O)c(O)c(O)c2)nc2sc3c(c12)CCC3 [C00009],IC50,[2]; [7],0.87 ± 0.045 µM
Cc1sc2nc(-c3cc(O)cc(O)c3)[nH]c(=O)c2c1C [Compound 2],IC50,[3],3.7 ± 0.73 µM
Cc1sc2nc(-c3cc(O)c(O)cc3O)[nH]c(=O)c2c1C [C00002],IC50,[2]; [7],0.45 ± 0.09 µM
Cc1sc2nc(-c3cc(O)ccc3O)[nH]c(=O)c2c1C [Compound 4],IC50,[3],85 ± 6 µM
"CCCC(C(=O)O)c1c(C)nc2ccc(Cl)cc2c1-c1ccccc1 (centres unmarked) [LEDGIN-6, reference compound]",IC50,[4],> 100 µM
same,"percentage in parentheses after >100, IN-IN subunit exchange",[4]; meaning of the bracketed percentage is not defined in the paper,>100 (100%)
same,IC50,[5],10 ± 0.4 µM
same,IC50,[1],10 ± 2 µM
same,EC50,HIV-1 IN multimerization; read-out: MI50 IN multimerization,10 ± 1 µM
same,IC50,[2]; [7],9 ± 2 µM
O=c1[nH]c(-c2cc(O)c(O)c(O)c2)nc2sc3c(c12)CCCCC3 [C00006],IC50,[2]; [7],0.31 ± 0.035 µM
O=c1[nH]c(-c2c(O)cc(O)cc2O)nc2sc3c(c12)CCCCC3 [C00007],IC50,[2]; [7],5.2 ± 1.2 µM
O=c1[nH]c(-c2cc(O)c(O)cc2O)nc2sc3c(c12)CCC3 [C00008],IC50,[2]; [7],1.96 ± 0.125 µM
"O=c1[nH]c(-c2cc(O)c(O)cc2O)nc2sc3c(c12)CCC3 [Compound 12, 2-(2,4,5-Ttrihydroxyphenyl)-3,5,6,7-tetrahydro-4H-cyclopenta[4,5]thieno[2,3-d]pyrimidin-4-one]",IC50,[4],17.3 ± 1.7 µM
same,IC50,[5],24.7 ± 1.75 µM
same,IC50,[1],0.86 ± 0.14 µM
same,MI50 IN multimerization,HIV-1 IN multimerization,none succeeded in inducing multimerization
O=c1[nH]c(-c2ccc(O)c(O)c2)nc2ccc(I)cc12 [Compound 1],IC50,wt RT RNase H,0.11 ± 0.01 µM
"O=c1[nH]c(-c2cc(O)c(O)c(O)c2)nc2sc3c(c12)CCCCC3 [Compound 10, 2-(3,4,5-Trihydroxyphenyl)-3,5,6,7,8,9-hexahydro-4H-cyclohepta[4,5]thieno[2,3-d]pyrimidin-4-one]",cytotoxicity,human T-cell line CEM-SS,devoid of cytotoxicity
same,effect on viral replication,[6],not able to inhibit viral replication
same,IC50,[4],2.05 ± 0.35 µM
same,IC50,[5],6.16 ± 0.98 µM
same,IC50,HIV-1 IN K173A mutant,3.3 ± 0.86 µM
same,"Fold of increase of potency, K173A mutant",HIV-1 IN K173A mutant,13.2
same,IC50,[1],3.6 ± 0.39 µM
same,MI50 IN multimerization,HIV-1 IN multimerization,none succeeded in inducing multimerization
same,IC50,[2]; [7],0.31 µM and 0.315 µM
same,increase of inhibitory capacity by sucrose (times),[2]; [8],~16
same,IC50,HIV-1 IN H185A mutant; [9],2.27 ± 0.43 µM
same,IC50,HIV-1 IN H185A mutant; [10],0.61 ± 0.022 µM
same,"Fold of increase of potency, H185A mutant",HIV-1 IN H185A mutant,3.7
